Results as given in ChEMBL document CHEMBL4219088, “Novel 4-aminoquinazoline derivatives induce growth inhibition, cell cycle arrest and apoptosis via PI3Kα inhibition” (Bioorg Med Chem, 2018).

Columns and labels:
Format in all cases: functional, cell-based
HCT-116 = test: Antiproliferative activity against human HCT116 cells after 72 hrs by sulforhodamine B assay; details: HCT-116, 72 h
MCF7 = test: Antiproliferative activity against human MCF7 cells after 72 hrs by sulforhodamine B assay; details: MCF7, 72 h
A549 = test: Antiproliferative activity against human A549 cells after 72 hrs by sulforhodamine B assay; details: A549, 72 h
MDA-MB-231 = test: Antiproliferative activity against human MDA-MB-231 cells after 72 hrs by sulforhodamine B assay; details: MDA-MB-231, 72 h
SK-HEP1 = test: Antiproliferative activity against human SKHEP1 cells after 72 hrs by sulforhodamine B assay; details: SK-HEP1, 72 h
SNU-638 = test: Antiproliferative activity against human SNU638 cells after 72 hrs by sulforhodamine B assay; details: SNU-638, 72 h

Row | IC50 (HCT-116) | IC50 (MCF7) | IC50 (A549) | IC50 (MDA-MB-231) | IC50 (SK-HEP1) | IC50 (SNU-638) | SMILES
1 | 13.5 µM | 14.7 µM | 4.12 µM | 2.32 µM | 12.6 µM | 0.41 µM | COc1ncc(-c2ccc3ncnc(NCCN(C)C)c3c2)cc1NS(C)(=O)=O
2 | 18.8 µM | 13.5 µM | 9.82 µM | 8.96 µM | 13.4 µM | 4.52 µM | COc1ncc(-c2ccc3ncnc(NCCCN4CCOCC4)c3c2)cc1NS(=O)(=O)c1ccc(F)cc1F
3 | 17.6 µM | 22.5 µM | 11.4 µM | 9.71 µM | 12.4 µM | 6.21 µM | COc1ncc(-c2ccc3ncnc(NCc4ccncc4)c3c2)cc1NS(=O)(=O)c1ccc(F)cc1F
